Laboratory results as given in PubChem BioAssay (NCI).
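How tested: cells in 96-well plates exposed to compound for 48 hours at five concentrations. GI50 is the concentration that inhibits growth by half. TGI: total growth inhibition.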

Columns and labels:
Assay in all cases: NCI tumour cell line growth inhibition, 48 h
SNB-19 CNS = system: SNB-19 CNS
HOP-92 NSCLC = system: HOP-92 NSCLC
SK-MEL-5 melanoma = system: SK-MEL-5 melanoma
MCF7 breast = system: MCF7 breast
CAKI-1 renal = system: CAKI-1 renal
T-47D breast = system: T-47D breast
UO-31 renal = system: UO-31 renal
SF-295 CNS = system: SF-295 CNS
SK-MEL-28 melanoma = system: SK-MEL-28 melanoma
PC-3 prostate = system: PC-3 prostate
SN12C renal = system: SN12C renal
BT-549 breast = system: BT-549 breast
HOP-62 NSCLC = system: HOP-62 NSCLC
NCI-H522 lung = system: NCI-H522 lung
TK-10 renal = system: TK-10 renal
HT29 colon = system: HT29 colon
MALME-3M melanoma = system: MALME-3M melanoma
HCT-15 colon = system: HCT-15 colon
UACC-257 melanoma = system: UACC-257 melanoma
MDA-MB-435 = system: MDA-MB-435
A549 NSCLC = system: A549 NSCLC
HCT-116 colon = system: HCT-116 colon
OVCAR-3 ovarian = system: OVCAR-3 ovarian
HL-60(TB) leukemia = system: HL-60(TB) leukemia
MOLT-4 leukemia = system: MOLT-4 leukemia
DU-145 prostate = system: DU-145 prostate
K-562 leukemia = system: K-562 leukemia
A498 renal = system: A498 renal
RPMI-8226 leukemia = system: RPMI-8226 leukemia
HCC-2998 colon = system: HCC-2998 colon
CCRF-CEM leukemia = system: CCRF-CEM leukemia
OVCAR-4 ovarian = system: OVCAR-4 ovarian
NCI-H460 lung = system: NCI-H460 lung
SK-MEL-2 melanoma = system: SK-MEL-2 melanoma
SF-539 CNS = system: SF-539 CNS
COLO 205 colon = system: COLO 205 colon
SK-OV-3 ovarian = system: SK-OV-3 ovarian
OVCAR-5 ovarian = system: OVCAR-5 ovarian
NCI/ADR-RES ovarian = system: NCI/ADR-RES ovarian
SF-268 CNS = system: SF-268 CNS
NCI-H226 lung = system: NCI-H226 lung
786-0 renal = system: 786-0 renal
RXF 393 renal = system: RXF 393 renal
SNB-75 CNS = system: SNB-75 CNS
MDA-MB-231 breast = system: MDA-MB-231 breast
IGROV1 ovarian = system: IGROV1 ovarian
U251 CNS = system: U251 CNS
SW-620 colon = system: SW-620 colon
HS 578T breast = system: HS 578T breast
NCI-H23 lung = system: NCI-H23 lung
OVCAR-8 ovarian = system: OVCAR-8 ovarian
KM12 colon = system: KM12 colon
ACHN renal = system: ACHN renal
EKVX NSCLC = system: EKVX NSCLC
UACC-62 melanoma = system: UACC-62 melanoma
SR leukemia = system: SR leukemia
LOX IMVI melanoma = system: LOX IMVI melanoma

## O=c1cc(NCC(O)CN2CCOCC2)n(Cc2ccccc2)c(=O)n1Cc1ccccc1 (centres undefined)
SNB-19 CNS
  GI50: > 100 µM
  TGI: > 100 µM
HOP-92 NSCLC
  GI50: 21.7 µM
  TGI: 77.1 µM
SK-MEL-5 melanoma
  GI50: 19.2 µM
  TGI: 35 µM
MCF7 breast
  GI50: 41.8 µM
  TGI: > 100 µM
CAKI-1 renal
  GI50: 85.9 µM
  TGI: > 100 µM
T-47D breast
  GI50: 61 µM
  TGI: > 100 µM
UO-31 renal
  GI50: 27.3 µM
  TGI: 85.8 µM
SF-295 CNS
  GI50: 41.2 µM
  TGI: > 100 µM
SK-MEL-28 melanoma
  GI50: 28.7 µM
  TGI: 70.3 µM
PC-3 prostate
  GI50: 33.7 µM
  TGI: > 100 µM
SN12C renal
  GI50: 42.3 µM
  TGI: > 100 µM
BT-549 breast
  GI50: 45.9 µM
  TGI: > 100 µM
HOP-62 NSCLC
  GI50: 34.2 µM
  TGI: > 100 µM
NCI-H522 lung
  GI50: 28.1 µM
  TGI: 72 µM
TK-10 renal
  GI50: > 100 µM
  TGI: > 100 µM
HT29 colon
  GI50: 18.8 µM
  TGI: 41.6 µM
MALME-3M melanoma
  GI50: 26.9 µM
  TGI: 77.3 µM
HCT-15 colon
  GI50: 45.5 µM
  TGI: > 100 µM
UACC-257 melanoma
  GI50: 30.2 µM
  TGI: 85.8 µM
MDA-MB-435
  GI50: 59.7 µM
  TGI: > 100 µM
A549 NSCLC
  GI50: 53.5 µM
  TGI: > 100 µM
HCT-116 colon
  GI50: 34.8 µM
  TGI: > 100 µM
OVCAR-3 ovarian
  GI50: 56.2 µM
  TGI: > 100 µM
HL-60(TB) leukemia
  GI50: 12.6 µM
  TGI: > 100 µM
MOLT-4 leukemia
  GI50: 27.8 µM
  TGI: > 100 µM
DU-145 prostate
  GI50: 51.7 µM
  TGI: > 100 µM
K-562 leukemia
  GI50: 30.8 µM
  TGI: > 100 µM
A498 renal
  GI50: 49.3 µM
  TGI: > 100 µM
RPMI-8226 leukemia
  GI50: 28.3 µM
  TGI: 78 µM
HCC-2998 colon
  GI50: 34.9 µM
  TGI: > 100 µM
CCRF-CEM leukemia
  GI50: 36.9 µM
  TGI: > 100 µM
OVCAR-4 ovarian
  GI50: 39.9 µM
  TGI: > 100 µM
NCI-H460 lung
  GI50: 44.2 µM
  TGI: > 100 µM
SK-MEL-2 melanoma
  GI50: > 100 µM
  TGI: > 100 µM
SF-539 CNS
  GI50: 60.2 µM
  TGI: > 100 µM
COLO 205 colon
  GI50: 23.5 µM
  TGI: 58.6 µM
SK-OV-3 ovarian
  GI50: > 100 µM
  TGI: > 100 µM
OVCAR-5 ovarian
  GI50: > 100 µM
  TGI: > 100 µM
NCI/ADR-RES ovarian
  GI50: 65.7 µM
  TGI: > 100 µM
SF-268 CNS
  GI50: 63.6 µM
  TGI: > 100 µM
NCI-H226 lung
  GI50: 56.8 µM
  TGI: > 100 µM
786-0 renal
  GI50: 41.4 µM
  TGI: > 100 µM
RXF 393 renal
  GI50: 30.5 µM
  TGI: 92.5 µM
SNB-75 CNS
  GI50: 31.8 µM
  TGI: 91.3 µM
MDA-MB-231 breast
  GI50: 19.2 µM
  TGI: 53.6 µM
IGROV1 ovarian
  GI50: 33.5 µM
  TGI: 86.3 µM
U251 CNS
  GI50: 47.6 µM
  TGI: > 100 µM
SW-620 colon
  GI50: 62.5 µM
  TGI: > 100 µM
HS 578T breast
  GI50: 37.8 µM
  TGI: > 100 µM
NCI-H23 lung
  GI50: 42.5 µM
  TGI: > 100 µM
OVCAR-8 ovarian
  GI50: 72.8 µM
  TGI: > 100 µM
KM12 colon
  GI50: 36.1 µM
  TGI: > 100 µM
ACHN renal
  GI50: 49.8 µM
  TGI: > 100 µM
EKVX NSCLC
  GI50: 70.6 µM
  TGI: > 100 µM
UACC-62 melanoma
  GI50: 22.7 µM
  TGI: 63.3 µM
SR leukemia
  GI50: 19.8 µM
  TGI: 49.3 µM
LOX IMVI melanoma
  GI50: 37.8 µM
  TGI: > 100 µM
